Measurements reported in patent US20220372008A1 (VIDYASIRIMEDHI INSTITUTE OF SCIENCE AND TECHNOLOGY, priority 2019, published 2022).
One block for each molecule: values may come before it.

Legend:
firefly luciferase = firefly luciferase (Photinus pyralis, UniProt P08659)
Experimental: The pure luciferin and the purified luciferin derivatives, which are derived from the synthesis and purification methods, reacts with the firefly luciferase, and then the emission wavelength is measured.
The reaction between the luciferin derivatives of the present disclosure and the firefly luciferase can emit the light.

[1] = assay type: physicochemical
Experimental: The term “thermostable dehalogenase” used herein refers to the dehalogenase or HadA, which is reengineered or modified, particularly modified on the surface of a wild-type dehalogenase or HadA. The reengineered or modified dehalogenase or HadA, which is called a thermostable HadA or HadA G513T, has an improvement on a temperature stability. The catalytic efficiency of the thermostable HadA or HadA G513T is in a broader range of temperature from 25-50° C. Further, the wild-type dehalogenase or HadA is a dechlorinating monooxygenase that can catalyze the elimination of nitro- and halides (F, Cl, Br, I) group from nitro- and halogenated phenols substrate. The wild type HadA can catalyze the reaction at 25° C. for 24 h. Whereas the reaction at higher temperature (>30° C.), the half-life of wild type HadA is dramatically decrease for 20 min. In accordance with various embodiments, the present disclosure relates to luciferin derivatives and a method for synthesis of the luciferin derivatives.
The thermostable dehalogenase is a modified HadA, particularly HadA G513T (Thermostable dehalogenase; HadA G513T), containing an amino acid sequence, which is set forth in SEQ ID NO.1 as shown in FIG. 8. The thermostable dehalogenase or HadA G513T is able to catalyze in a range of temperature from 25-50° C. and its half-life at 50° C. is 200 min. However, […]

Chain of firefly luciferase (P08659 whole entry): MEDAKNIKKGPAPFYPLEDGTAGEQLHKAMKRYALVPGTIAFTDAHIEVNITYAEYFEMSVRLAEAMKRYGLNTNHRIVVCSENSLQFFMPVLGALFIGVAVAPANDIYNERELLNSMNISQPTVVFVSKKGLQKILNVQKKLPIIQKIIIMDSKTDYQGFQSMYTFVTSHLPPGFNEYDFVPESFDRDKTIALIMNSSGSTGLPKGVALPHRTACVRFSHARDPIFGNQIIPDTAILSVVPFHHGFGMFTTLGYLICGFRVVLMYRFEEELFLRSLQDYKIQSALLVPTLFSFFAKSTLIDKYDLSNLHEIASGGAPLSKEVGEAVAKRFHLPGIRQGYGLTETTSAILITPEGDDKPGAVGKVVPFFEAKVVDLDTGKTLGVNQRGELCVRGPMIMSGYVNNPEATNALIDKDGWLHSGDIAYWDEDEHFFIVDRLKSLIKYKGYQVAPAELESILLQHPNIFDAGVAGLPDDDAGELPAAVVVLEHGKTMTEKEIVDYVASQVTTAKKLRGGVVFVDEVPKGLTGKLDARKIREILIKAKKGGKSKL

emitting wavelength as substrate for the firefly luciferase (firefly luciferase; spectrofluorometer under bioluminescent mode): 604 nm
maximum emission wavelength (firefly luciferase; substrate for wild-type firefly luciferase, FIG. 5): 604 nm
Molecule: 7′-bromoluciferin

B1: HadA G513T: modified HadA, thermostable dehalogenase with amino acid sequence SEQ ID NO.1 (protein, listed as Escherichia coli)
chain: MIRTGTQYLESLNDGRNVWVGNEKIDNVATHPKTRDYAQRHADFYDLHHRPDLQDVMTYIDEGGQRRAMQWFGHRDKEQLRRKRKYHETVMREMAGASFPRTPDVNNYVLTTYIDDPAPWETQSIGDDGHIKAGKIVDFIRYAREHDLNCAPQFVDPQMDRSNPDAQERSPGLRVVEKNEKGIVVNGVKAIGTGVAFADWIHIGVFFRPGIPGDQVIFAATPVNTPGVTIVCRESLVKDDKVEHPLAAQGDELDGMTVFENVFIPWSHVFHIGNPNHAKLYPQRVFDWLHYHALIRQMVRAELVAGLAVLITEHIGTNKIPAVQTRVAKLIGFHQAMLAHLIASEELGFHTPGGHYKPNILIYDFGRALYLENFSQMIYELVDLSGRSALIFASEDQWNDDKLNGWFERMNNGPVGRPHDRVKIGRVIRDLFLTDWGSRLFVFENFNGTPLQGIRMLTMQRAEFSGSGPYGKLARQVCGIDSAVTDDTEYRKTADYAKALDAARHQEEVALATAMAI
half-life [1]: 3.33 h
